Assay results reported in patent US20040033982A1, “Viral inhibition by n-docosanol” (priority 2001, published 2004).

Test system: wild-type HSV-2
Experiment: Plaque formation by wild-type HSV-2 in Vero cells
Format: cell-based
Details: FIG. 7, Panel A
Procedure: FIG. 7 depicts data showing that n-docosanol inhibits acyclovir-resistant HSV-2. Vero cells were cultured in 35-mm wells (6×10^5 cells per well) in medium alone (=none) or in the presence of the indicated concentration of acyclovir, n-docosanol-Pluronic F-68 suspension or control suspension (Pluronic F-68 only). The cultures were inoculated 24 hours later with 150 PFU of either wild-type HSV-2 or an acyclovir-resistant laboratory isolate from the wild-type HSV-2 that was plaque purified and passaged in 20 μg/ml acyclovir 44 hours later, the plates were incubated, fixed, stained, and scored for numbers of plaques. The data presented are means of plaques scored from duplicate cultures. The percent inhibition observed in cultures treated with acyclovir or n-docosanol relative to untreated control cultures is denoted in parentheses.

CCCCCCCCCCCCCCCCCCCCCCO [n-docosanol]
inhibition of plaque formation: inhibit plaque formation by wild type HSV-2 equally
